# Columns and labels:
# Format in all cases: in vivo
# [1] = test system: Setaria viridis (SETVI); test: Pre-emergence herbicidal action against SETVI
# Method in brief: (§1)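 Pre-emergence soil-surface spray of compound, formulated as wettable powder or emulsion concentrate, in aqueous suspension or emulsion with 0.5% additive (600 l/ha; rate 320 g/ha or less). Activity rated visually after roughly 3 weeks in the greenhouse as a percentage of untreated controls, 0% meaning no difference.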
# [2] = test system: Echinochloa crus-galli (ECHCG); test: Pre-emergence herbicidal action against ECHCG
# Method in brief: as §1
# [3] = test system: Echinochloa crus-galli (ECHCG); test: Post-emergence herbicidal action against ECHCG
# Method in brief: (§2)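 Rates were 320 g/ha or below, applied as aqueous WP/EC spray with 0.5% additive (600 l/ha) onto one-leaf-stage plants. About 3 weeks later in the greenhouse, damage was scored visually against untreated plants on a 0–100% scale, where 100% means plants died.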
# [4] = test system: Pharbitis purpurea (PHBPU); test: Pre-emergence herbicidal action against PHBPU
# Method in brief: as §1
# [5] = test system: Lolium rigidum (LOLRI); test: Post-emergence herbicidal action against LOLRI
# Method in brief: as §2
# [6] = test system: Avena fatua (AVEFA); test: Post-emergence herbicidal action against AVEFA; settings: visual rating about 3 weeks after treatment
# Method in brief: as §2
# [7] = test system: Viola tricolor (VIOTR); test: Pre-emergence herbicidal action against VIOTR
# Method in brief: as §1
# [8] = test system: Alopecurus myosuroides (ALOMY); test: Post-emergence herbicidal action against ALOMY; settings: visual rating about 3 weeks after treatment vs untreated controls (100% = plants have died, 0% = like control plants)
# Method in brief: as §2
# [9] = test system: Matricaria inodora (MATIN); test: Pre-emergence herbicidal action against MATIN
# Method in brief: as §1
# [10] = test system: Pharbitis purpurea (PHBPU); test: Post-emergence herbicidal action against PHBPU
# Method in brief: as §2
# [11] = test system: Polygonum convolvulus (POLCO); test: Pre-emergence herbicidal action against POLCO
# Method in brief: as §1
# [12] = test system: Abutilon theophrasti (ABUTH); test: Pre-emergence herbicidal action against ABUTH; settings: 100% = plants have died
# Method in brief: as §1
# [13] = test system: Avena fatua (AVEFA); test: Pre-emergence herbicidal action against AVEFA; settings: visual scoring after about 3 weeks vs untreated controls
# Method in brief: as §1
# [14] = test system: Viola tricolor (VIOTR); test: Post-emergence herbicidal action against VIOTR
# Method in brief: as §2
# [15] = test system: Verconica persica (VERPE); test: Pre-emergence herbicidal action against VERPE
# Method in brief: as §1
# [16] = test system: Alopecurus myosuroides (ALOMY); test: Pre-emergence herbicidal action against ALOMY; settings: scored visually after about 3 weeks, 100% = plants have died
# Method in brief: as §1
# [17] = test system: Setaria viridis (SETVI); test: Post-emergence herbicidal action against SETVI
# Method in brief: as §2
# [18] = test system: Amaranthus retroflexus (AMARE); test: Pre-emergence herbicidal action against AMARE; settings: visual scoring after about 3 weeks vs untreated controls
# Method in brief: as §1
# [19] = test system: Verconica persica (VERPE); test: Post-emergence herbicidal action against VERPE
# Method in brief: as §2
# [20] = test system: Lolium rigidum (LOLRI); test: Pre-emergence herbicidal action against LOLRI
# Method in brief: as §1
# [21] = test system: Matricaria inodora (MATIN); test: Post-emergence herbicidal action against MATIN
# Method in brief: as §2
# [22] = Dosage column 320 g/ha (title prints 3200 g/ha), scored visually after about 3 weeks
structure (smiles),measurement,setting,value
COC(=O)[C@@H](C)Oc1nn(-c2ccccn2)c(-c2cncc(F)c2)c1Cl [Example I-189],Pre-emergence action against SETVI in %,[1]; dosage 80 g/ha,100%
same,Pre-emergence action against SETVI in %,[1]; dosage 320 g/ha,100%
same,Pre-emergence action against ECHCG in %,[2]; dosage 80 g/ha,90%
same,Pre-emergence action against ECHCG in %,[2]; dosage 320 g/ha,100%
same,Post-emergence action against ECHCG in %,[3]; dosage 80 g/ha,90%
same,Post-emergence action against ECHCG in %,[3]; dosage 320 g/ha,90%
same,Pre-emergence action against PHBPU in %,[4]; dosage 80 g/ha,90%
same,Pre-emergence action against PHBPU in %,[4]; dosage 320 g/ha,90%
same,Post-emergence action against LOLRI in %,[5]; dosage 80 g/ha,100%
same,Post-emergence action against LOLRI in %,[5]; dosage 320 g/ha,100%
same,Post-emergence action against AVEFA in %,[6]; 80 g/ha,90%
same,Post-emergence action against AVEFA in %,[6]; 320 g/ha,90%
same,Pre-emergence action against VIOTR in %,"[7]; 320 g/ha, Viola tricolor",100%
same,Pre-emergence action against VIOTR in %,[7]; dosage 80 g/ha,100%
same,Post-emergence action against ALOMY in %,[8]; 80 g/ha,80%
same,Post-emergence action against ALOMY in %,[8]; 320 g/ha,90%
same,Pre-emergence action against MATIN in %,[9]; dosage 80 g/ha,90%
same,Pre-emergence action against MATIN in %,[9]; dosage 320 g/ha,100%
same,Post-emergence action against PHBPU in %,[10]; dosage 80 g/ha,90%
same,Post-emergence action against PHBPU in %,[10]; dosage 320 g/ha,90%
same,Pre-emergence action against POLCO in %,[11]; dosage 80 g/ha,100%
same,Pre-emergence action against POLCO in %,[11]; dosage 320 g/ha,100%
same,Pre-emergence action against ABUTH,"[12]; 80 g/ha, scored visually after about 3 weeks vs untreated controls, 0% = like control plants",80%
same,Pre-emergence action against ABUTH,[12]; [22],90%
same,Pre-emergence action against AVEFA in %,[13]; 80 g/ha,90%
same,Pre-emergence action against AVEFA in %,[13]; 320 g/ha,90%
same,Post-emergence action against VIOTR in %,[14]; 80 g/ha,90%
same,Post-emergence action against VIOTR in %,[14]; 320 g/ha,90%
same,Pre-emergence action against VERPE in %,[15]; dosage 80 g/ha,90%
same,Pre-emergence action against VERPE in %,[15]; dosage 320 g/ha,100%
same,Pre-emergence action against ALOMY,[16]; 80 g/ha,80%
same,Pre-emergence action against ALOMY,[16]; 320 g/ha,90%
same,Post-emergence action against SETVI in %,[17]; dosage 80 g/ha,90%
same,Post-emergence action against SETVI in %,[17]; dosage 320 g/ha,90%
same,Pre-emergence action against AMARE in %,[18]; 80 g/ha,100%
same,Pre-emergence action against AMARE in %,[18]; 320 g/ha,100%
same,Post-emergence action against VERPE in %,"[19]; 320 g/ha, VERPE",90%
same,Post-emergence action against VERPE in %,[19]; dosage 80 g/ha,90%
same,Pre-emergence action against LOLRI in %,[20]; dosage 80 g/ha,100%
same,Pre-emergence action against LOLRI in %,[20]; dosage 320 g/ha,100%
same,Post-emergence action against MATIN in %,[21]; dosage 80 g/ha,90%
same,Post-emergence action against MATIN in %,[21]; dosage 320 g/ha,90%
C[C@@H](Oc1nn(-c2ncccc2F)c(-c2ccc(F)nc2)c1C(F)(F)F)C(=O)O [Example I-317],Pre-emergence action against SETVI in %,[1]; dosage 80 g/ha,80%
same,Pre-emergence action against SETVI in %,[1]; dosage 320 g/ha,90%
same,Pre-emergence action against ECHCG in %,[2]; dosage 80 g/ha,100%
same,Pre-emergence action against ECHCG in %,[2]; dosage 320 g/ha,100%
same,Post-emergence action against ECHCG in %,[3]; dosage 80 g/ha,80%
same,Post-emergence action against ECHCG in %,[3]; dosage 320 g/ha,90%
same,Pre-emergence action against PHBPU in %,[4]; dosage 80 g/ha,90%
same,Pre-emergence action against PHBPU in %,[4]; dosage 320 g/ha,90%
same,Post-emergence action against LOLRI in %,[5]; dosage 80 g/ha,90%
same,Post-emergence action against LOLRI in %,[5]; dosage 320 g/ha,90%
same,Post-emergence action against AVEFA in %,[6]; 80 g/ha,90%
same,Post-emergence action against AVEFA in %,[6]; 320 g/ha,90%
same,Pre-emergence action against VIOTR in %,"[7]; 320 g/ha, Viola tricolor",100%
same,Pre-emergence action against VIOTR in %,[7]; dosage 80 g/ha,100%
same,Post-emergence action against ALOMY in %,[8]; 80 g/ha,100%
same,Post-emergence action against ALOMY in %,[8]; 320 g/ha,100%
same,Pre-emergence action against MATIN in %,[9]; dosage 80 g/ha,100%
same,Pre-emergence action against MATIN in %,[9]; dosage 320 g/ha,100%
same,Post-emergence action against PHBPU in %,[10]; dosage 320 g/ha,80%
same,Pre-emergence action against POLCO in %,[11]; dosage 80 g/ha,100%
same,Pre-emergence action against POLCO in %,[11]; dosage 320 g/ha,100%
same,Pre-emergence action against ABUTH,[12]; [22],90%
same,Pre-emergence action against AVEFA in %,[13]; 80 g/ha,90%
same,Pre-emergence action against AVEFA in %,[13]; 320 g/ha,100%
same,Post-emergence action against VIOTR in %,[14]; 80 g/ha,90%
same,Post-emergence action against VIOTR in %,[14]; 320 g/ha,90%
same,Pre-emergence action against VERPE in %,[15]; dosage 80 g/ha,80%
same,Pre-emergence action against VERPE in %,[15]; dosage 320 g/ha,100%
same,Pre-emergence action against ALOMY,[16]; 80 g/ha,100%
same,Pre-emergence action against ALOMY,[16]; 320 g/ha,100%
same,Pre-emergence action against AMARE in %,[18]; 80 g/ha,100%
same,Pre-emergence action against AMARE in %,[18]; 320 g/ha,100%
same,Post-emergence action against VERPE in %,"[19]; 320 g/ha, VERPE",90%
same,Post-emergence action against VERPE in %,[19]; dosage 80 g/ha,90%
same,Pre-emergence action against LOLRI in %,[20]; dosage 80 g/ha,100%
same,Pre-emergence action against LOLRI in %,[20]; dosage 320 g/ha,100%
same,Post-emergence action against MATIN in %,[21]; dosage 80 g/ha,90%
same,Post-emergence action against MATIN in %,[21]; dosage 320 g/ha,90%

# Source: US20240041042A1, “1-(PYRIDYL)-5-AZINYLPYRAZOLE DERIVATIVES, AND THEIR USE FOR CONTROL OF UNDESIRED PLANT GROWTH” (Bayer Aktiengesellschaft, priority 2020, published 2024)
